pIC50: −log10 of the molar value. A value given as a limit tells only on which side of the number the result lay.

This assay deals with T1, BRD4 BD1 (Homo sapiens, UniProt O60885).
T1 construct: Protein BRD4 BD1 used in the assay was purchased from Active Motif (cat. 31380); purchased Active Motif 31380
The experiment in a line: HTRF in vitro enzyme activity assay, inhibition of BRD4 BD1 binding to acetylated H4 peptide. The note with it: IC50 values of the compounds against BRD4 BD1 binding; class symbols A/B/C. Here is the method:
Effect Examples: In Vitro Enzyme Activity Assay
Half inhibitory activity (IC50) of the compounds of the invention against the bromodomain protein BRD4 BD1 was determined in the present Examples.
The compounds of the invention were tested for inhibitory activity against BRD4 BD1 with Homogeneous Time-Resolved Fluorescence (HTRF).
2. Reagents, Consumable Materials and Instruments:
Protein BRD4 BD1 used in the assay was purchased from Active Motif (cat. 31380); streptavidin XL-665 (#610SAXLA) and EPIgeneous Binding Domain Kit A (#62BDAPEG) were both purchased from Cisbio Bioassays; [Lys(5,8,12,16)Ac] H4(1-21)-biotin (#64989), [Lys(5,8,12,16)Ac]H4(1-25) were available from Anaspec; OTX015 and ABBV-075 were purchased from Selleckchem Co. The 384-well ProxiPlate (#6008280) was purchased from Perkinelmer Co. The Laboratory microplate reader (Envision 2104) was available from PerkinElmer Co. The water used in the assay was Millipore-Q pure water.
3. Formulation of the Compound
10 mM DMSO stock solution of the test compound was diluted to 1 mM in DMSO, and then diluted 10-fold in Binding Domain dilution buffer (purchased from Cisbio Bioassays) for use (DMSO concentration in the final system was 0.1%), including 5 concentrations in 1:5 gradient.
4. Assay Protocol: 1 Batch, 2 Repeats
1) 5 μL of test compound was transferred to 45 μL Binding Domain dilution buffer.
2) 2 μL of 1× compound (4 μL Binding Domain dilution buffer: positive control; 6 μL enzyme buffer (purchased from Cisbio Bioassays): negative control) was transferred to a reaction plate.
3) 4 μL of 5×BRD 4(1) was added to the reaction plate (30 nM in the final system).
4) 4 μL of 5×[Lys(5,8,12,16)Ac] H4(1-21)-biotin was added to the reaction plate, and the plate was covered with a film and incubated at 37° C. for 30 min.
5) A detection mixture of SA-XL665 (2×) and anti-H3K9me0-Eu(K) (2×) was prepared in detection buffer (purchased from Cisbio Bioassays).
6) 10 μL of detection mixture (2×) was added to each well, incubated at RT for 3 h. The mp value was read by microplate reader Envision with the following parameters: […]
(In general: In TR-FRET formats the signal depends on donor and acceptor labels being close together.)
Turning to `C[C@@H]1C(=O)N(C)c2ccc(N3C(=O)c4c(C(=O)NC5CC5)cccc4C3c3ccccc3)nc2N1C` (stereo partly drawn) [Example A87-P4, N-cyclopropyl-3-oxo-1-phenyl-2-((R)-1,3,4-trimethyl-2-oxo-1,2,3,4-tetrahydropyrido[2,3-b]pyrazin-6-yl)isoindoline-4-carboxamide], the pIC50 is at least 8.00.
Under `Cc1ccc(C2CCC(=O)N2c2ccc3c(n2)N(C2CC2)C(C)C(=O)N3C)cc1` (single isomer, unassigned) [Example A8-P3, 4-cyclopropyl-6-(2-(4-methylphenyl)-5-oxopyrrolidin-1-yl)-1,3-dimethyl-3,4-dihydropyrido[2,3-b]pyrazin-2(1H)-one] stands at least 8.00; under `CCN1C(=O)[C@@H](C)Oc2nc(N3C(=O)c4ccccc4C3c3ccc(Cl)cc3)ccc21` (stereo partly drawn) [Example A109-P3, (R)-6-(1-(4-chlorophenyl)-3-oxoisoindolin-2-yl)-1-ethyl-3-methyl-1H-pyrido[2,3-B][1,4]oxazin-2-(3H)-one], 7.00 to 8.00.
`[2H]C([2H])([2H])N1C(=O)C(C)N(C2CC2)c2nc(N3C(=O)c4ccccc4C3c3cccnc3)ccc21` (stereo not drawn) [Example A43-P4, 4-cyclopropyl-3-methyl-1-(trideuteromethyl)-6-(1-oxo-3-(pyridin-3-yl)isoindolin-2-yl)-3,4-dihydropyrido [2,3-B]pyrazin-2(1H)-one] had a pIC50 of at least 8.00.
For the molecule `CC1C(=O)N(C)c2cnc(-n3c(=O)c4ccccc4n3-c3ccc(Cl)cc3)nc2N1C1CC1` (single isomer, unassigned) [Compound A89-P3], the pIC50 was at least 8.00.
As to `Cc1cc(N2C(=O)CCC2c2ccccc2)nc2c1N(C)C(=O)C(C)N2C1CC1` (single isomer, unassigned) [Example A9-P1-2, 4-cyclopropyl-1,3,8-trimethyl-6-(2-oxo-5-phenylpyrrolidin-1-yl)-3,4-dihydropyrido[2,3-b]pyrazin-2(1H)-one], the pIC50 is 7.00 to 8.00.
The molecule `CSc1cccc2c1C(=O)N(c1ccc3c(n1)N(C1CC1)C(C)C(=O)N3C)C2c1cccnc1` (single isomer, unassigned) [Example A65-P3, 4-cyclopropyl-1,3-dimethyl-6-(4-(methylthio)-3-oxo-1-(pyridin-3-yl)isoindolin-2-yl)-3,4-dihydropyrido[2,3-b]pyrazin-2(1H)-one] gave a negative-log IC50 (pIC50) of at least 8.00.
The molecule `CC1C(=O)N(C)c2ccc(N3C(=O)CCC3c3ccccc3)nc2N1C1CC1` (single isomer, unassigned) [Example A1-P2-2, 4-cyclopropyl-1,3-dimethyl-6-(2-oxo-5-phenyl-pyrrolidin-1-yl)-3,4-dihydropyrido[2,3-b]pyrazin-2(1H)-one] gave a pIC50 of at least 8.00.
For the molecule `C[C@H]1Oc2nc(N3C(=O)c4c(cccc4[S+](C)[O-])C3c3cccnc3)ccc2N(C)C1=O` (single isomer, unassigned) [Example A127-P1], the pIC50 was at least 8.00.
As to `CC1C(=O)N(CC(F)F)c2ccc(N3C(=O)c4ccccc4C3c3cccnc3)nc2N1C1CC1` (stereo not drawn) [Example A53-P4, 4-cyclopropyl-1-(2,2-difluoroethyl)-3-methyl-6-(1-oxo-3-(pyridin-3-yl)isoindolin-2-yl)-3,4-dihydropyrido [2,3-b]pyrazin-2(1H)-one], the pIC50 is at least 8.00.
`CCN1c2nc(N3C(=O)CCC3c3ccc(F)cc3)ccc2N(C)C(=O)[C@H]1C` (single isomer, unassigned) [Example A16-P1]: the pIC50 is at least 8.00.
The result for `CC1C(=O)N(CC(F)(F)F)c2ccc(N3C(=O)c4ccccc4C3c3cccnc3)nc2N1C1CC1` (stereo not drawn) [Example A46-P4, 4-cyclopropyl-1-(2,2,2-trifluoroethyl)-3-methyl-6-(1-oxo-3-(pyridin-3-yl)isoindolin-2-yl)-3,4-dihydropyrido [2,3-b]pyrazin-2(1H)-one] reads at least 8.00; that for `CC1C(=O)N(C)c2ccc(N3C(=O)c4ccccc4C3c3ccncc3)nc2N1C1CC1` (stereo not drawn) [Example A58-P1, 4-cyclopropyl-1,3-dimethyl-6-(1-oxo-3-(pyridin-4-yl)isoindolin-2-yl)-3,4-dihydropyrido[2,3-b]pyrazin-2(1H)-one], at least 8.00; that for `Cc1ccc(-n2c3ccccc3c(=O)n2-c2ccc3c(n2)N(C2CC2)C(C)C(=O)N3C)cn1` (single isomer, unassigned) [Example A50-P4, 6-(1-(6-methyl-pyridin-3-yl)-3-oxo-1,3-dihydro-2H-indazol-2-yl)-4-cyclopropyl-1-methyl-3-methyl-3,4-dihydropyridine [2,3-b]pyrazin-2(1H)-one], at least 8.00.
In turn, `CC1C(=O)N(C)c2ccc(N3C(=O)c4ccccc4C3c3ccc(F)cc3)nc2N1C1CC1` (single isomer, unassigned) [Example A23P4, 4-cyclopropyl-6-(1-(4-fluorophenyl)-3-oxoisoindolin-2-yl)-1,3-dimethyl-3,4-dihydropyrido[2,3-b]pyrazin-2(1H)-one] gave a pIC50 of at least 8.00.
Take `CC1C(=O)N(C)c2ccc(N3C(=O)c4c(cccc4[S+](C)[O-])C3c3cccnc3)nc2N1C1CC1` (single isomer, unassigned) [Example A60-P1]: the pIC50 was at least 8.00.
The molecule `CC1C(=O)N(C)c2ccc(N3C(=O)CCC3c3ccc(F)cc3F)nc2N1C1CC1` (single isomer, unassigned) [Example A7-P3, 4-cyclopropyl-6-(2-(2,4-difluorophenyl)-5-oxopyrrolidin-1-yl)-1,3-dimethyl-3,4-dihydropyrido[2,3-b]pyrazin-2(1H)-one] had a pIC50 of at least 8.00.
For `C[C@@H]1C(=O)N(C)c2ccc(N3C(=O)c4cccnc4C3(O)c3ccccc3)nc2N1C` (single isomer, unassigned) [Example A76-P1], the pIC50 is at least 8.00.
`CC1C(=O)N(C)c2ccc(N3C(=O)c4c(cccc4S(C)(=O)=O)C3c3cccnc3)nc2N1C1CC1` (single isomer, unassigned) [Example A64-P3, 4-cyclopropyl-1,3-dimethyl-6-(4-(methanesulfonyl)-3-oxo-1-(pyridin-3-yl)isoindolin-2-yl)-3,4-dihydropyrido[2,3-b]pyrazin-2(1H)-one] had a pIC50 of at least 8.00.
`CC1C(=O)N(C)c2ccc(N3C(=O)c4ccccc4C3c3cccnc3)nc2N1CC(F)(F)F` (stereo not drawn) [Example A59-P2, 1,3-dimethyl-6-(1-oxo-3-(pyridin-3-yl)isoindolin-2-yl)-4-(2,2,2-trifluoroethyl)-3,4-dihydropyrido[2,3-b]pyrazin-2(1H)-one] gave a negative-log IC50 (pIC50) of at least 8.00.
In the case of `CC(=O)N1c2nc(N3C(=O)CCC3c3ccc(F)cc3)ccc2N(C)C(=O)[C@H]1C` (single isomer, unassigned) [Example A17-P1], the pIC50 was 6.00 to 7.00.
With `CC1C(=O)N(C)c2ccc(N3C(=O)c4cccnc4C3(O)c3ccc(F)cc3F)nc2N1C1CC1` (single isomer, unassigned) [Example A13-P1, 4-cyclopropyl-6-(7-(2,4-difluorophenyl)-7-hydroxy-5-oxo-5,7-dihydro-6H-pyrrolo[3,4-b]pyridin-6-yl)-1,3-dimethyl-3,4-dihydropyrido[2,3-b]pyrazin-2(1H)-one], the negative-log IC50 (pIC50) is at least 8.00.
The molecule `C[C@@H]1C(=O)N(C)c2ccc(N3C(=O)c4ccccc4C3c3cccnc3)nc2N1C` (stereo partly drawn) [Example A48-P4, (3R)-1,3,4-trimethyl-6-(1-oxo-3-(pyridin-3-yl)isoindolin-2-yl)-3,4-dihydropyrido [2,3-b]pyrazin-2-(1H)-one] had a pIC50 of at least 8.00.
For `CC1C(=O)N(C)c2ccc(N3C(=O)CCC3c3ccccn3)nc2N1C1CC1` (single isomer, unassigned) [Example A6-P1, 4-cyclopropyl-1,3-dimethyl-6-(2-oxo-5-(pyridin-2-yl)pyrrolidin-1-yl)-3,4-dihydropyrido[2,3-b]pyrazin-2(1H)-one], the pIC50 was at least 8.00.
The molecule `CC1C(=O)N(C)c2ccc(N3C(=O)c4ccccc4C3c3ccccc3)nc2N1C1CC1` (single isomer, unassigned) [Example A11-P3, 4-cyclopropyl-1,3-dimethyl-6-(1-oxo-3-phenylisoindolin-2-yl)-3,4-dihydropyrido[2,3-b]pyrazin-2(1H)-one] showed a pIC50 of at least 8.00.
Turning to `C[C@H]1Oc2cc(N3C(=O)c4cc(F)ccc4C3c3cccnc3)ncc2N(C)C1=O` (stereo partly drawn) [Example A117, (2R)-7-(5-fluoro-3-oxo-1-(pyridin-3-yl)isoindolin-2-yl)-2,4-dimethyl-2H-pyrido[4,3-b][1,4]oxazin-3(4H)-one], the pIC50 is 6.00 to 7.00.
With `CC1C(=O)N(C)c2ccc(N3C(=O)c4sccc4C3c3cccnc3)nc2N1C1CC1` (single isomer, unassigned) [Example A72-P4, 5-(4-cyclopropyl-1,3-dimethyl-2-oxo-1,2,3,4-tetrahydropyrido[2,3-b]pyrazin-6-yl)-4-(pyridin-3-yl)-4,5-dihydro-6H-thieno[2,3-c]pyrrol-6-one], the pIC50 was at least 8.00.

The pIC50 is −log10 of the IC50, conventionally taken in molar units.

Source of the values: patent US20210261539A1, “COMPOUND HAVING BET INHIBITORY ACTIVITY AND PREPARATION METHOD AND USE THEREFOR” (Shanghai Haihe Pharmaceutical Co., Ltd., priority 2018, published 2021).
